From patent publication US9718774B2, “Indole carboxamide derivatives as P2X7 receptor antagonist” (ACTELION PHARMACEUTICALS LTD, priority 2012, dated 2017)

Molecular target: T1, human recombinant P2X7 receptor (Homo sapiens, UniProt Q99572)
T1 construct: expressed in transfected cells
T1 sequence (Q99572 1-595): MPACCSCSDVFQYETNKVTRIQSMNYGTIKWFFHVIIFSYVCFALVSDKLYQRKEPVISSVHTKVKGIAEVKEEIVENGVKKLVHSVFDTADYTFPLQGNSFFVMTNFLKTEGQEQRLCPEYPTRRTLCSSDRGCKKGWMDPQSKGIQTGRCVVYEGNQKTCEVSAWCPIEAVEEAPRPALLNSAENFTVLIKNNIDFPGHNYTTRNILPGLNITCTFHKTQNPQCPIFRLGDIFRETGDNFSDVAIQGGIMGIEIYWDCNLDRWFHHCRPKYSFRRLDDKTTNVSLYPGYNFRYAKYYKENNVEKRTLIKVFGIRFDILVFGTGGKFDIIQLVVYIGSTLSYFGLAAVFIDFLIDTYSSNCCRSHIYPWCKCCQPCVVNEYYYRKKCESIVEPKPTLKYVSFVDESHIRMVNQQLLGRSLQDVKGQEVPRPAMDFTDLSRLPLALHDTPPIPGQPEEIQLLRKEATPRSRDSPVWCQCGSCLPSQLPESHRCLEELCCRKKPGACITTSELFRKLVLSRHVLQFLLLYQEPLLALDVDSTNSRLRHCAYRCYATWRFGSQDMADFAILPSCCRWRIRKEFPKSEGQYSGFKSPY
Assay: YO-PRO assay: P2X7 receptor antagonistic activity in HEK cells stably expressing P2X7
Type: cell-based
Settings: antagonistic activity with respect to the P2X7 receptor, read-out: IC50
In short: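 HEK cells stably transfected with human P2X7 (cloned from blood cDNA) were loaded with 0.5 μM YO-PRO-1. They were exposed to antagonist (10 concentrations, top 10 μM, 1/3 steps, duplicate) together with 250 μM ATP for 90 min, and dye uptake was read by FLIPR at ex 485/em 530. IC50 from maximum fluorescence versus concentration.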

SMILES	IC50
O=C(NCC(c1ccc(Cl)nc1)C1CCCCC1)c1ccc2[nH]ccc2c1Cl (racemic) [Example 65, rac-4-Chloro-1H-indole-5-carboxylic acid [2-(6-chloro-pyridin-3-yl)-2-cyclohexyl-ethyl]-amide]	0.076 µM
Cc1ncc(C(CNC(=O)c2ccc3[nH]ccc3c2Cl)N2CCC(F)(F)C2)cn1 (racemic) [Example 82, rac-4-Chloro-1H-indole-5-carboxylic acid [2-(3,3-difluoro-pyrrolidin-1-yl)-2-(2-methyl-pyrimidin-5-yl)-ethyl]-amide]	0.034 µM
Cc1ncc(C(CNC(=O)c2cc(C(C)(C)O)c3[nH]ccc3c2Cl)N2CCOCC2)cn1 (racemic) [Example 116, rac-4-Chloro-7-(1-hydroxy-1-methyl-ethyl)-1H-indole-5-carboxylic acid [2-(2-methyl-pyrimidin-5-yl)-2-morpholin-4-yl-ethyl]-amide]	0.149 µM
Cc1ncc(C(CNC(=O)c2ccc3[nH]ccc3c2Cl)NC2CCCC2)cn1 (racemic) [Example 83, rac-4-Chloro-1H-indole-5-carboxylic acid [2-cyclopentylamino-2-(2-methyl-pyrimidin-5-yl)-ethyl]-amide]	0.162 µM
Cc1ncc(C(CNC(=O)c2ccc3[nH]ccc3c2Cl)N(C)Cc2ccccc2)cn1 (racemic) [Example 87, rac-4-Chloro-1H-indole-5-carboxylic acid [2-(benzyl-methyl-amino)-2-(2-methyl-pyrimidin-5-yl)-ethyl]-amide]	2.65 µM
O=C(NCC(c1ccc(Cl)nc1)N1CCCCC1)c1ccc2[nH]ccc2c1Cl (racemic) [Example 56, rac-4-Chloro-1H-indole-5-carboxylic acid [2-(6-chloro-pyridin-3-yl)-2-piperidin-1-yl-ethyl]-amide]	0.0088 µM
CCC(CC)OC(CNC(=O)c1ccc2[nH]ccc2c1Cl)c1cnc(C)nc1 (racemic) [Example 71, rac-4-Chloro-1H-indole-5-carboxylic acid [2-(1-ethyl-propoxy)-2-(2-methyl-pyrimidin-5-yl)-ethyl]-amide]	0.022 µM
O=C(NCC(c1ccnc(O)c1)N1CCOCC1)c1ccc2[nH]ccc2c1Cl (racemic) [Example 91, rac-4-Chloro-1H-indole-5-carboxylic acid [2-morpholin-4-yl-2-(2-hydroxypyridin-4-yl)-ethyl]-amide]	0.353 µM
O=C(NCC(c1ccc(Cl)nc1)N1CCC(F)(F)CC1)c1ccc2[nH]ccc2c1Cl (racemic) [Example 2, rac-4-Chloro-1H-indole-5-carboxylic acid [2-(6-chloro-pyridin-3-yl)-2-(4,4-difluoro-piperidin-1-yl)-ethyl]-amide]	0.0043 µM
O=C(NCC(c1cccnn1)N1CCCCC1)c1ccc2[nH]ccc2c1Cl (racemic) [Example 73, rac-4-Chloro-1H-indole-5-carboxylic acid (2-piperidin-1-yl-2-pyridazin-3-yl-ethyl)-amide]	1.01 µM
O=C(NCC(c1ccc(F)cc1)N1CCOCC1)c1ccc2[nH]ccc2c1Cl (racemic) [Example 17, rac-4-Chloro-1H-indole-5-carboxylic acid [2-(4-fluoro-phenyl)-2-morpholin-4-yl-ethyl]-amide]	0.0092 µM
CCc1cc(C(=O)NCC(c2cnc(C)nc2)N2CCOCC2)c(Cl)c2cc[nH]c12 (racemic) [Example 107, rac-4-Chloro-7-ethyl-1H-indole-5-carboxylic acid [2-(2-methyl-pyrimidin-5-yl)-2-morpholin-4-yl-ethyl]-amide]	0.015 µM
Cc1ncc(C(CNC(=O)c2ccc3[nH]c(C)cc3c2Cl)N2CCOCC2)cn1 (racemic) [Example 72, rac-4-Chloro-2-methyl-1H-indole-5-carboxylic acid [2-(2-methyl-pyrimidin-5-yl)-2-morpholin-4-yl-ethyl]-amide]	0.463 µM
Cc1ccc(C(CNC(=O)c2ccc3[nH]ccc3c2Cl)N2CCOCC2)cc1 (racemic) [Example 47, rac-4-Chloro-1H-indole-5-carboxylic acid (2-morpholin-4-yl-2-p-tolyl-ethyl)-amide]	0.054 µM
O=C(NCC(c1ccc(F)c(F)c1)N1CCCCC1)c1ccc2[nH]ccc2c1Cl (racemic) [Example 45, rac-4-Chloro-1H-indole-5-carboxylic acid [2-(3,4-difluoro-phenyl)-2-piperidin-1-yl-ethyl]-amide]	0.083 µM
CCc1cc(C(=O)NCC(c2cnc(C)nc2)N2CCOCC2)c(Cl)c2cc[nH]c12 (single isomer, unassigned) [Example 119, 4-Chloro-7-ethyl-1H-indole-5-carboxylic acid [2-(2-methyl-pyrimidin-5-yl)-2-morpholin-4-yl-ethyl]-amide]	0.016 µM

SMILES	IC50
Cc1ncc(C(CNC(=O)c2ccc3[nH]ccc3c2Cl)N2CC3CC2CO3)cn1 (stereo not shown) [Example 68, 4-Chloro-1H-indole-5-carboxylic acid [2-(2-methyl-pyrimidin-5-yl)-2-(2-oxa-5-aza-bicyclo[2.2.1]hept-5-yl)-ethyl]-amide]	2.06 µM
Cc1ncc(C(CNC(=O)c2cc(Cl)c3[nH]ccc3c2C)N2CCOCC2)cn1 (racemic) [Example 108, rac-7-Chloro-4-methyl-1H-indole-5-carboxylic acid [2-(2-methyl-pyrimidin-5-yl)-2-morpholin-4-yl-ethyl]-amide]	0.011 µM
Cc1noc(C)c1C(CNC(=O)c1ccc2[nH]ccc2c1Cl)N1CCOCC1 (racemic) [Example 53, rac-4-Chloro-1H-indole-5-carboxylic acid [2-(3,5-dimethyl-isoxazol-4-yl)-2-morpholin-4-yl-ethyl]-amide]	1.99 µM
Cc1ncc(C(CNC(=O)c2ccc3[nH]ccc3c2Cl)N2CCCCC2)cn1 (racemic) [Example 16, rac-4-Chloro-1H-indole-5-carboxylic acid [2-(2-methyl-pyrimidin-5-yl)-2-piperidin-1-yl-ethyl]-amide]	0.0097 µM
O=C(NCC(c1cccc(F)c1)N1CCOCC1)c1ccc2[nH]ccc2c1Cl (racemic) [Example 37, rac-4-Chloro-1H-indole-5-carboxylic acid [2-(3-fluoro-phenyl)-2-morpholin-4-yl-ethyl]-amide]	0.032 µM
Cc1ncc(C(CNC(=O)c2ccc3[nH]ccc3c2Cl)N2CCC(F)(F)CC2)cn1 (single isomer, unassigned) [Example 6, 4-Chloro-1H-indole-5-carboxylic acid [2-(4,4-difluoro-piperidin-1-yl)-2-(2-methyl-pyrimidin-5-yl)-ethyl]-amide]	0.0068 µM
O=C(NCC(c1cccnc1)N1CCCCC1)c1ccc2[nH]ccc2c1Cl (racemic) [Example 46, rac-4-Chloro-1H-indole-5-carboxylic acid (2-piperidin-1-yl-2-pyridin-3-yl-ethyl)-amide]	0.039 µM
Cc1ncc(C(CNC(=O)c2ccc3[nH]ccc3c2Cl)C2CCC(F)(F)CC2)cn1 (racemic) [Example 93, rac-4-Chloro-1H-indole-5-carboxylic acid [2-(4,4-difluoro-cyclohexyl)-2-(2-methyl-pyrimidin-5-yl)-ethyl]-amide]	0.012 µM
Cc1ncc(C(CNC(=O)c2ccc3[nH]ccc3c2Cl)OC2CCOCC2)cn1 (racemic) [Example 70, rac-4-Chloro-1H-indole-5-carboxylic acid [2-(2-methyl-pyrimidin-5-yl)-2-(tetrahydro-pyran-4-yloxy)-ethyl]-amide]	0.091 µM
CCOc1cc(C(=O)NCC(c2cnc(C)nc2)N2CCOCC2)c(Cl)c2cc[nH]c12 (racemic) [Example 110, rac-4-Chloro-7-ethoxy-1H-indole-5-carboxylic acid [2-(2-methyl-pyrimidin-5-yl)-2-morpholin-4-yl-ethyl]-amide]	0.013 µM
O=C(NCC(c1ccc(F)cc1F)N1CCOCC1)c1ccc2[nH]ccc2c1Cl (racemic) [Example 34, rac-4-Chloro-1H-indole-5-carboxylic acid [2-(2,4-difluoro-phenyl)-2-morpholin-4-yl-ethyl]-amide]	0.061 µM
CS(=O)(=O)N1CCC(C(CNC(=O)c2ccc3[nH]ccc3c2Cl)c2cccnc2)CC1 (racemic) [Example 23, rac-4-Chloro-1H-indole-5-carboxylic acid [2-(1-methanesulfonyl-piperidin-4-yl)-2-pyridin-3-yl-ethyl]-amide]	0.056 µM
CCOC(CNC(=O)c1ccc2[nH]ccc2c1Cl)c1cnc(C)nc1 (racemic) [Example 67, rac-4-Chloro-1H-indole-5-carboxylic acid [2-ethoxy-2-(2-methyl-pyrimidin-5-yl)-ethyl]-amide]	0.636 µM
Cc1ncc(C(CNC(=O)c2cc(OCCO)c3[nH]ccc3c2Cl)N2CCOCC2)cn1 (racemic) [Example 113, rac-4-Chloro-7-(2-hydroxy-ethoxy)-1H-indole-5-carboxylic acid [2-(2-methyl-pyrimidin-5-yl)-2-morpholin-4-yl-ethyl]-amide]	0.021 µM
Cc1ncc(C(CNC(=O)c2ccc3[nH]ccc3c2Cl)N2CCCC(F)(F)C2)cn1 (racemic) [Example 79, rac-4-Chloro-1H-indole-5-carboxylic acid [2-(3,3-difluoro-piperidin-1-yl)-2-(2-methyl-pyrimidin-5-yl)-ethyl]-amide]	0.0093 µM
